Target: CDK-2 (Homo sapiens, UniProt P24941)
Test: CDK-2 inhibition, fluorescence polarization displacement assay
Description: Binding assays were performed in a 384 well Costar NBS coated plate. […] The concentration of BMS-Alexa Fluor647 was 50 nM. Serial dilutions of compounds were added to 12 wells. The final buffer concentration was 10 mM Hepes, pH 7.5, 150 mM NaCl, and 1 mM DTT. Samples were incubated at room temperature for 15 minutes and then read in an Analyst HT instrument using an excitation and emission wavelength of 580 and 680 nm, respectively.

Row | SMILES | IC50 [µM]
1 | COC[C@H](Cc1ccc(O)cc1)NC(=O)c1cc(C(=O)O)c2cc(CN(C)C)ccc2n1 [Compound 211] | > 40
2 | COC(=O)[C@H](Cc1ccc(O)cc1)NC(=O)c1cc(C(=O)O)c2cc(-c3cccs3)ccc2n1 [Compound 81] | < 1
3 | COC[C@H](Cc1ccc(O)cc1)NC(=O)c1cc(-n2cccn2)c2cc(-c3cccc(Cn4cccn4)c3)ccc2n1 [Compound 213] | > 40
4 | COC[C@H](Cc1ccc(O)cc1)NC(=O)c1cc(C(=O)O)c2cc(C#Cc3ccccc3C(F)(F)F)ccc2n1 [Compound 148] | 1 to 40
5 | COC[C@H](Cc1ccc(O)cc1)NC(=O)c1cc(C(=O)OCCO)c2cc(/C=C/c3ccc(Cl)cc3)ccc2n1 [Compound 214] | > 40
6 | COC(=O)[C@H](Cc1c[nH]cn1)NC(=O)c1cc(C(=O)O)c2cc(-c3cccs3)ccc2n1 [Compound 156] | > 40
7 | COC(=O)[C@H](Cc1ccc(O)cc1)NC(=O)c1cc(C(=O)OCCO)c2cc(-c3cccs3)ccc2n1 [Compound 230] | > 40
8 | COC[C@H](Cc1ccc(O)cc1)NC(=O)c1cc(S(C)(=O)=O)c2cc(-c3cccc(C(F)(F)F)c3)ccc2n1 [Compound 172] | > 40
9 | CNC(=O)[C@H](Cc1ccc(O)cc1)NC(=O)c1cc(C(=O)O)c2cc(/C=C/c3ccc(Cl)cc3)ccc2n1 [Compound 14] | < 1
10 | COC[C@H](Cc1ccc(O)cc1)NC(=O)c1cc(C(=O)O)c2cc(CSc3ccncc3)ccc2n1 [Compound 208] | > 40
11 | COC[C@H](Cc1ccc(O)cc1)NC(=O)c1cc(C(=O)O)c2cc(C#CCCCCN)ccc2n1 [Compound 203] | > 40
12 | COC(=O)[C@H](Cc1ccc(O)cc1)NC(=O)c1cc(C(=O)O)c2cc(-c3ccc(Cl)cc3)ccc2n1 [Compound 83] | < 1
13 | COC(=O)[C@H](Cc1ccc(O)cc1)NC(=O)c1cc(C(=O)O)c2cc(-c3cc4ccccc4o3)ccc2n1 [Compound 38] | < 1
14 | COC(=O)[C@H](Cc1ccc(O)cc1)NC(=O)c1cc(C(=O)O)c2cc(-c3cccc([N+](=O)[O-])c3)ccc2n1 [Compound 33] | < 1
15 | COC[C@H](Cc1ccc(O)cc1)NC(=O)c1cc(C(=O)O)c2cc(COc3ccc(O)cc3)ccc2n1 [Compound 202] | > 40
16 | COC(=O)[C@H](Cc1ccc(O)cc1)NC(=O)c1cc(C(=O)OCC(N)C(C)C)c2cc(-c3cccs3)ccc2n1 (stereo partly drawn) [Compound 228] | > 40

Row | SMILES | IC50 [µM]
17 | CCOC(=O)c1cc(C(=O)N[C@H](COC)Cc2ccc(O)cc2)nc2ccc(/C=C/c3ccc(Cl)cc3)cc12 [Compound 217] | > 40
18 | NC[C@H](Cc1ccc(O)cc1)NC(=O)c1cc(C(=O)O)c2cc(CCc3ccc(Cl)cc3)ccc2n1 [Compound 97] | 1 to 40
19 | COC[C@H](Cc1ccc(O)cc1)NC(=O)c1cc(C(=O)O)c2cc(C#CCN3CCS(=O)(=O)CC3)ccc2n1 [Compound 205] | > 40
20 | COC(=O)[C@H](Cc1ccc(O)cc1)NC(=O)c1cc(C(=O)O)c2cc(-c3ccc(C)cc3)ccc2n1 [Compound 103] | 1 to 40
21 | CCOC(=O)C#Cc1ccc2nc(C(=O)N[C@H](COC)Cc3ccc(O)cc3)cc(C(=O)O)c2c1 [Compound 206] | > 40
22 | COC(=O)[C@H](Cc1ccc(O)cc1)NC(=O)c1cc(C(=O)O)c2cc(Cc3ccccc3)ccc2n1 [Compound 159] | > 40
23 | COC[C@H](Cc1ccc(O)cc1)NC(=O)c1cc(S(=O)(=O)O)c2cc(-c3cccc(C(F)(F)F)c3)ccc2n1 [Compound 71] | < 1
24 | COC[C@H](Cc1ccc(O)cc1)NC(=O)c1cc(C(=O)OCC(O)CO)c2cc(-c3cccc(C(F)(F)F)c3)ccc2n1 (stereo partly drawn) [Compound 174] | > 40
25 | COC[C@H](Cc1ccc(O)cc1)NC(=O)c1cc(C(=O)O)c2cc(C#Cc3ccccn3)ccc2n1 [Compound 125] | 1 to 40
26 | CCCCOC(=O)c1cc(C(=O)N[C@@H](Cc2ccc(O)cc2)C(=O)OC)nc2ccc(-c3cccs3)cc12 [Compound 231] | > 40
27 | COC(=O)[C@H](Cc1ccc(O)cc1)NC(=O)c1cc(C(=O)O)c2cc(-c3ccc(F)cc3)ccc2n1 [Compound 135] | 1 to 40
28 | NCC[C@H](Cc1ccc(O)cc1)NC(=O)c1cc(C(=O)O)c2cc(CCc3ccccc3)ccc2n1 [Compound 182] | > 40
29 | COC(=O)[C@H](Cc1ccc(O)cc1)NC(=O)c1cc(C(=O)O)c2cc(-c3ccc(OC)c(F)c3)ccc2n1 [Compound 113] | 1 to 40
30 | O=C(N[C@@H](Cc1ccc(O)cc1)C(=O)NC1CC1)c1cc(C(=O)O)c2cc(/C=C/c3ccc(Cl)cc3)ccc2n1 [Compound 44] | < 1
31 | COC[C@H](Cc1ccc(O)cc1)NC(=O)c1cc(C(=O)O)c2cc(C#CCN(C)C)ccc2n1 [Compound 185] | > 40
32 | CCCCOC(=O)c1cc(C(=O)N[C@H](COC)Cc2ccc(O)cc2)nc2ccc(-c3cccc(C(F)(F)F)c3)cc12 [Compound 177] | > 40

The remaining lines, values ahead:

Row | IC50 [µM] | SMILES
33 | > 40 | COC(=O)[C@H](Cc1ccc(OC(C)(C)C)cc1)NC(=O)c1cc(C(=O)O)c2cc(-c3cccc(C(F)(F)F)c3)ccc2n1 [Compound 166]
34 | > 40 | COC(=O)[C@H](Cc1ccc(OC)cc1)NC(=O)c1cc(S(C)(=O)=O)c2cc(-c3cccc(C(F)(F)F)c3)ccc2n1 [Compound 171]
35 | 1 to 40 | COC[C@H](Cc1ccc(O)cc1)NC(=O)c1cc(NS(=O)(=O)C(C)(C)C)c2cc(-c3cccc(N4CCOCC4)c3)ccc2n1 [Compound 136]
36 | > 40 | COC[C@H](Cc1ccc(O)cc1)NC(=O)c1cc(C(=O)O)c2cc(CCc3cccnc3)ccc2n1 [Compound 187]
37 | < 1 | COC(=O)[C@H](Cc1ccc(O)cc1)NC(=O)c1cc(NS(C)(=O)=O)c2cc(-c3cccc(C(F)(F)F)c3)ccc2n1 [Compound 64]
38 | 1 to 40 | COC[C@H](Cc1ccc(O)cc1)NC(=O)c1cc(C(=O)O)c2cc(C#Cc3cccnc3)ccc2n1 [Compound 137]
39 | < 1 | COC[C@H](Cc1ccc(O)cc1)NC(=O)c1cc(NS(=O)(=O)C(C)(C)C)c2cc(-c3cccc(COc4ccccn4)c3)ccc2n1 [Compound 27]
40 | > 40 | COC(=O)c1cc(C(=O)N[C@@H](Cc2ccc(O)cc2)C(=O)OC)nc2ccc(-c3cccs3)cc12 [Compound 229]
41 | > 40 | COC[C@H](Cc1ccc(O)cc1)NC(=O)c1cc(C(=O)OCCO)c2cc(-c3cccc(C(F)(F)F)c3)ccc2n1 [Compound 173]
42 | 1 to 40 | COC(=O)[C@H](Cc1ccc(O)cc1)NC(=O)c1cc(C(=O)O)c2cc(-c3cccc(C(C)=O)c3)ccc2n1 [Compound 104]
43 | < 1 | COC[C@H](Cc1ccc(O)cc1)NC(=O)c1cc(-c2nnn[nH]2)c2cc(-c3cccc(C(F)(F)F)c3)ccc2n1 [Compound 87]
44 | > 40 | COC[C@H](Cc1ccc(O)cc1)NC(=O)c1cc(C(=O)O)c2cc(C#CCCCCN3CCN(C)CC3)ccc2n1 [Compound 219]
45 | > 40 | CCN(CC)Cc1cccc(-c2ccc3nc(C(=O)N[C@H](COC)Cc4ccc(O)cc4)cc(C(=O)O)c3c2)c1 [Compound 183]
46 | 1 to 40 | COC(=O)[C@H](Cc1ccc(O)cc1)NC(=O)c1cc(C(=O)O)c2cc(-c3cccc(OC)c3)ccc2n1 [Compound 91]
47 | < 1 | O=C(NC(Cc1ccc(O)cc1)C1CCCCC1)c1cc(C(=O)O)c2cc(-c3cccc(C(F)(F)F)c3)ccc2n1 (stereo not drawn) [Compound 63]
48 | < 1 | COC(=O)[C@H](Cc1ccc(O)cc1)NC(=O)c1cc(C(=O)O)c2cc(-c3ccc(F)c(C)c3)ccc2n1 [Compound 41]

— patent publication EP1931657B1, “NOVEL HIGH AFFINITY QUINOLINE-BASED KINASE LIGANDS” (Merck Sharp & Dohme Corp., priority 2005, dated 2007)
